Test results taken from US10314870B2, “Tropism modified cancer terminator virus (Ad.5/3 CTV;AD.5/3-CTV-M7)” (priority 2012, dated 2019).

System: GBM6 intra-cerebral tumors
Experiment: Survival of mice with orthotopic GBM6 tumors after intratumoral virus infusion
Format: in vivo, athymic mice
Details: virus 1×10^8 pfu intratumoral day 7; SAHA 25 mg/kg QD PO for 5 days
Protocol: FIG. 24. SAHA enhances MDA-7/IL-24 toxicity in vivo. GBM6 cells (0.5×10^6) were implanted into the brains of athymic mice. Seven days later tumors were infused with 1×10^8 pfu of either Ad.5/3-cmv or Ad.5/3-mda-7. Twenty-four h after virus infusion animals were treated with vehicle diluent (cremophore, PO) or vorinostat (SAHA, 25 mg/kg QD, PO) for 5 days. Animal survival was monitored on a daily basis (n=2, 8 animals total).
FIG. 25A-E. Ad.5/3-PEG-E1A-mda-7 (Ad.5/3-CTV; Ad.5/3-CTV-M7) prolongs animal survival in a dose-dependent fashion and does so to a greater extent than Ad.5/3- mda-7. Panel A. GBM6-luciferase cells (0.5 ×10^6) were implanted into the brains of athymic mice. Seven days later tumors were infused with 1×10^8 pfu of either: Ad.5/3-cmv: Ad.5/3-mda-7; Ad.5/3-PEG-E1A; or Ad.5/3-PEG-E1A-mda-7 (Ad.5/3-CTV; Ad.5/3-CTV-M7). On the days indicated in the graph animals were injected with luciferin (150 mg/kg) and were imaged 15 min later following placement into an IVIS Xenogen imager. […] Animal survival was monitored on a daily basis (n=2, 6 animals total) ((a) p<0.04 greater survival than Ad.5/3-cmv; (b) p<0.0008 greater survival than Ad.5/3-cmv; (c) p<0.04 greater survival than Ad.5/3-mda-7; (d) p<0.004 greater survival than Ad.5/3-mda-7; (e) p<0.0008 greater survival than Ad.5/3-PEG-E1A-mda-7 (Ad.5/3-CTV; Ad.5/3-CTV-M7) at a dose of 3×10^8 pfu). […]

O=C(CCCCCCC(=O)Nc1ccccc1)NO [SAHA]
animal survival: did not significantly enhance animal survival
